Measurements as given in patent publication US12351565B2, “Aromatic compound and preparation method therefor and use thereof” (SHANGHAI JIANHE PHARMACEUTICAL & TECHNOLOGY CO. LTD., priority 2018, dated 2025).

Columns and labels:
[1] = In vivo pharmacokinetic experiment in rats; conditions: SD rats
Protocol: Healthy male SD rats were randomly divided into groups with 3 rats in each group, and the test compounds were administrated intragastrically or by intravenous injection. See Table 8 below for specific arrangements:
(§1) Each test compound was dissolved in physiological saline to prepare a certain concentration of solution for administration.
One day before administration, the rats were fasted and allowed to drink freely for 12-14 h. The rats were fed 4 h after administration. 0.030 mL of blood was took from each animal each time through the orbit, and anticoagulated with EDTAK2 anticoagulation. The collection time points were as follows: in PO group, 5 min, 10 min, 15 min, 30 min, 1 h, 2 h, 4 h, 6 h, 8 h, 24 h after administration of test substance; in IV group, 2 min, 5 min, 15 min, 30 min, 1 h, 2 h, 4 h, 6 h, 8 h, 24 h after administration of test substance. After blood samples were collected, they were placed on ice and centrifuged to separate the plasma within 30 minutes (centrifugation conditions: 5000 rpm, 10 minutes, 4° C.). The sample were stored at −80° C. before analysis.

[2] = In vivo pharmacokinetic experiment in mice; conditions: C57 mice
Protocol: Healthy male C57 mice were randomly divided into groups with 3 mice in each group, and the test compounds were administrated intragastrically or by intravenous injection. See Table 6 below for specific arrangements:
as §1
(§2) One day before administration, the mice were fasted and allowed to drink freely for 12-14 h. The mice were fed 4 h after administration.
0.030 mL of blood was took from each animal each time through the orbit, and anticoagulated with EDTAK2. The collection time points were as follows: in PO group, 5 min, 15 min, 30 min, 1 h, 2 h, 4 h, 6 h, 8 h, 24 h after administration of test substance; in IV group, 2 min, 5 min, 15 min, 30 min, 1 h, 2 h, 4 h, 6 h, 8 h, 24 h after administration of test substance. After blood samples were collected, they were placed on ice and centrifuged to separate the plasma within 30 minutes (centrifugation conditions: 5000 rpm, 10 minutes, 4° C.). The sample were stored at −80° C. before analysis.

C57 mice = test: Forced swimming experiment, oral administration to mice; type: in vivo; conditions: inhibition of immobility time, C57 mice
Protocol: 1 h and 24 h after a single oral administration of 20 mg/kg, forced swimming experiments were then carried out to investigate the effects of different compounds on depression-like behavior in C57 mice.
Experimental animals were 6-week aged C57 mice, male, C57 mice were purchased from Shanghai SLAC Laboratory Animal Co., Ltd., with a body weight of 20.45±0.19 g. Before the experiment, they arrived at the Animal Feeding Center of Shanghai Institute of Materia Medica, Chinese Academy of Sciences (Animal Production License: SCXK9[Shanghai]2004-0002, usage license: SYXK[Shanghai]2003-0029), and adapted for 3 days or more in animal facilities. They were bred at 6 animals/cage. The breeding environment was room temperature 23±0.2° C., with 12/12 hours alternation of day and night. Before the behavioral test, the animals should be moved to the behavioral test operation room 2 hours in advance to adapt to the environment and reduce their tension.
Preparation of the test product: each test compound was accurately weighed and dissolved in 0.9% NaCl solution, mixed thoroughly, and prepared into 1 mg/ml and 2 mg/ml solutions respectively, and set aside.
24 hours before the administration, the mice were placed in a cylindrical tank to adapt to the aquatic environment for 10 min. On the day of the behavioral test, the animals were respectively administered intragastrically once at 1 h and 24 h before the behavioral test. The mice were placed individually into a cylindrical glass tank with a height of 30 cm and a diameter of 20 cm. The water depth in the tank was 15 cm, so that the animals could not escape from the glass tank and their feet and tails could not touch the bottom of the tank, the water temperature was 23° C.-25° C. A 6 minute video was taken after the mouse entered into water. Since most animals were very active in the first two minutes, the immobility time in the following 4 minute were calculated (criterion of immobility: the mouse stops struggling in the water, stays still and has small limbs movement to maintain balance or to keep a floating state).
The antidepressant effect of a compound was evaluated by the ability of the compound to reduce the immobility time of the animal in the forced swimming test as compared with the blank group. Inhibition rate1 h(%)=immobility time(blank, 1 h)−immobility time(administration, 1 h)/immobility time(blank, 1 h)×100% Inhibition rate24h(%)=immobility time(blank, 24 h)−immobility time(administration, 24 h)/immobility time(blank, 24 h)×100%

[3] = Distribution in mouse brain tissue; type: in vivo, C57 mice
Protocol: Healthy male C57 mice were randomly divided into groups with 3 mice in each group, and the test compound was administrated intragastrically. See Table 10 below for specific arrangements:
as §1, §2
After the animals were bled, the brain tissue was collected. After washing, 50% ice methanol was added for homogenate at 1:4 (m/v). The collection time points was 10 min, 15 min, 30 min, 1 h, 2 h after administration of the test substance; 30.0 μL of tissue sample was taken (the sample was taken out from the refrigerator at −80° C., vortexed for 30 seconds after natural melting at room temperature) and added into a 1.5 mL centrifuge tube. 300.0 μL internal standard solution (30 ng/mL […] acetonitrile solution) was added, the mixture was vortex for 60 seconds and then centrifuged for 3 minutes (centrifugal force was 12000 rpm); 75 μL of the supernatant was taken and transferred to 96-well injection plate loaded with equal volume of water, shaken and mixed well, and subjected to LC-MS/MS analysis, wherein injection volume was 10 μL.

[4] = male, rat, iv, 10 mg/kg i.v., plasma
[5] = male, rat, po, 10 mg/kg p.o., plasma
[6] = male, rat, po, 100 mg/kg p.o., plasma
[7] = male, mouse, iv, 5 mg/kg i.v., plasma
[8] = male, mouse, po, 20 mg/kg p.o., plasma

Cl.N[C@@]1(c2ccc(C(F)(F)F)cc2)CCC[C@@H](O)C1=O [Compound 50, (2R,6R)-2-amino-6-hydroxy-2-(4-(trifluoromethyl)phenyl)cyclohexane-1-one hydrochloride]
AUC0-t ([1]; 10 mg/kg i.v., plasma): 10976 ngh/mL | AUC0-∞ ([1]; 10 mg/kg i.v., plasma): 11306 ngh/mL | F ([1]; 10 mg/kg p.o.): 82.5% | AUC0-t ([1]; 10 mg/kg p.o., plasma): 9060 ngh/mL | AUC0-∞ ([1]; 10 mg/kg p.o., plasma): 9533 ngh/mL | F ([1]; 100 mg/kg p.o.): 77.8% | AUC0-t ([1]; 100 mg/kg p.o., plasma): 85478 ngh/mL | AUC0-∞ ([1]; 100 mg/kg p.o., plasma): 87916 ngh/mL | MRT [1, 4]: 4.56 h | half-life [1, 4]: 4.84 h | clearance ([1]; male, rat, plasma, iv, 10 mg/kg i.v.): 14.8 mL/min/kg | Vd ([1]; male, rat, plasma, iv, 10 mg/kg i.v., read-out: Vss): 4.03 L/kg | Cmax [1, 5]: 3110 ng/mL | MRT [1, 5]: 6.29 h | Tmax [1, 5]: 0.31 h | half-life [1, 5]: 5.73 h | Cmax [1, 6]: 17300 ng/mL | MRT [1, 6]: 5.47 h | Tmax [1, 6]: 0.67 h | half-life [1, 6]: 4.86 h | AUC0-t ([2]; 5 mg/kg i.v., plasma): 3022 ngh/mL | AUC0-∞ ([2]; 5 mg/kg i.v., plasma): 3075 ngh/mL | F ([2]; 20 mg/kg p.o. vs 5 mg/kg i.v.): 112% | AUC0-t ([2]; 20 mg/kg p.o., plasma): 13548 ngh/mL | AUC0-∞ ([2]; 20 mg/kg p.o., plasma): 13624 ngh/mL | MRT [2, 7]: 1.29 h | half-life [2, 7]: 1.67 h | clearance ([2]; male, mouse, plasma, iv, 5 mg/kg i.v.): 27.2 mL/min/kg | Vd ([2]; male, mouse, plasma, iv, 5 mg/kg i.v., read-out: Vss): 2.1 L/kg | Cmax [2, 8]: 8100 ng/mL | MRT [2, 8]: 2.49 h | Tmax [2, 8]: 6.6 min | half-life [2, 8]: 4.16 h | 1 h inhibition rate (C57 mice; forced swimming 1 h after single oral (intragastric) 20 mg/kg): 34.5 ± 3.1% | 24 h inhibition rate (C57 mice; forced swimming 24 h after single oral (intragastric) 20 mg/kg): 35.6 ± 3.6% | AUC0-∞ ([3]; C57 mouse brain tissue, 20 mg/kg p.o.): 18509 ng·h/g | concentration at 10 min ([3]; male, brain, po, C57 mouse, 20 mg/kg p.o. (intragastrically), 10 min): 19400 ng/g | half-life ([3]; male, po, C57 mouse brain tissue, 20 mg/kg p.o.): 1.44 h
